Laboratory results published in patent publication US8367583B2, “Composition and method for controlling pests” (Sumitomo Chemical Company, Limited, priority 2009, dated 2013).

Key:
[1] = system: first-instar larvae of Pseudaletia Separata; experiment: Test Example 2: treatment of the foot of rice seedlings, control rate against Pseudaletia Separata larvae; type: in vivo; details: rice seedling foot treated with 5 ml, 3 days after release
Procedure: An aqueous solution of the compound I prepared by dissolving the compound I in water was appropriately mixed with a chemical solution of fipronil prepared by diluting Fipronil (Prince Flowable: manufactured by BASF Agro, Ltd.) with water to prepare a mixed chemical solution for test of the compound I and fipronil with a predetermined concentration. The foot of a rice seedling (2 weeks after germination) cultivated in a 90-ml plastic cup using cultivation soil was treated with 5 ml of the mixed chemical solution for test. After 3 days, 30 of first-instar larvae of Pseudaletia Separata were released per plant. After 3 days, the number of surviving larvae was counted and the control rate was calculated using the equation A.
(§1) For comparison, the test was conducted in the same manner using an aqueous solution for test having a predetermined concentration of the compound I prepared by diluting an aqueous solution of the compound I with water, and a chemical solution for test having a predetermined concentration of fipronil prepared by diluting a chemical solution of fipronil with water, respectively.
(§2) Control Rate=100×(1−[(Ts/30)/(Cs/30)]) “Equation A” where Ts and Cs denote the number of surviving larvae in the treatment group and the non-treatment group, respectively. When the control rate is less than 0 (Ts>Cs), it is represented by 0.

[2] = system: first-instar larvae of Nilaparvata lugens; experiment: Test Example 3: rice seed immersion, control rate against Nilaparvata lugens larvae; type: in vivo; details: rice seeds immersed 24 hours at 30° C., 7 days after release
Description: as §2
An aqueous solution of the compound I prepared by dissolving the compound I in water was appropriately mixed with a chemical solution of fipronil prepared by diluting fipronil (Prince Flowable: manufactured by BASF Agro, Ltd.) with water to prepare a mixed chemical solution for test of the compound I and fipronil with a predetermined concentration. In 40 ml of the mixed chemical solution for test, 100 of rice seeds were immersed and allowed to stand at 30° C. for 24 hours, and then each of the 15 seeds were sown in cultivation soil filled in a 90-ml plastic cup. Eleven (11) days after the sowing, 30 of first-instar larvae of Nilaparvata lugens were released on seedlings germinated from the rice seeds. After 7 days, the number of the surviving larvae was counted and the control rate was calculated using the equation A in the same manner as in Example 2.
as §1

O=C(O)CCC(=O)NCCc1ccccc1 [Compound I, 4-oxo-4-[(2-phenylethyl)amino]-butyric acid]
Control rate ([1]; Compound I 10 ppm singly (Fipronil 0 ppm)): 0% | Control rate ([1]; Compound I 30 ppm singly (Fipronil 0 ppm)): 0% | Control rate ([1]; Compound I 100 ppm singly (Fipronil 0 ppm)): 0% | Control rate ([2]; Compound I 50 ppm singly (Fipronil 0 ppm)): 11% | Control rate ([2]; Compound I 200 ppm singly (Fipronil 0 ppm)): 21%

N#Cc1nn(-c2c(Cl)cc(C(F)(F)F)cc2Cl)c(N)c1[S+]([O-])C(F)(F)F (stereo not drawn) [Fipronil, 5-amino-1-(2,6-dichloro-α,α,α-trifluoro-p-tolyl)-4-trifluoromethylsulfinyl pyrazole-3-carbonitrile, reference compound]
Control rate ([1]; Fipronil 10 ppm singly (Compound I 0 ppm)): 23% | Control rate ([1]; Fipronil 30 ppm singly (Compound I 0 ppm)): 41% | Control rate ([1]; Fipronil 100 ppm singly (Compound I 0 ppm)): 68% | Control rate ([2]; Fipronil 3.1 ppm singly (Compound I 0 ppm)): 50%
